According to paper PMC11448502, “Cryo-EM structures of the human P2X1 receptor reveal subtype-specific architecture and antagonism by supramolecular ligand-binding” (Nature Communications, 2024):

B1: full-length wild-type human P2X1 receptor (receptor, UniProt P51575 1-399, looked up)
chain: MARRFQEELAAFLFEYDTPRMVLVRNKKVGVIFRLIQLVVLVYVIGWVFLYEKGYQTSSGLISSVSVKLKGLAVTQLPGLGPQVWDVADYVFPAQGDNSFVVMTNFIVTPKQTQGYCAEHPEGGICKEDSGCTPGKAKRKAQGIRTGKCVAFNDTVKTCEIFGWCPVEVDDDIPRPALLREAENFTLFIKNSISFPRFKVNRRNLVEEVNAAHMKTCLFHKTLHPLCPVFQLGYVVQESGQNFSTLAEKGGVVGITIDWHCDLDWHVRHCRPIYEFHGLYEEKNLSPGFNFRFARHFVENGTNYRHLFKVFGIRFDILVDGKAGKFDIIPTMTTIGSGIGIFGVATVLCDLLLLHILPKRHYYKQKKFKYAEDMGPGAAERDLAATSSTLGLQENMRTS
modifications: N-linked glycosylation (N-acetylglucosamine modelled in the extracellular domain, e.g. at N184)
notes: human P2X1 receptor (P2X purinoceptor 1), full-length wild type, no mutations or truncations; Cytoplasmic N- and C-terminal residues are not visible in the maps; also called hP2X1; hP2X1-WT; source: HEK293 GNTI- cells, BacMam baculovirus transduction; solubilised in DDM/CHS, purified (TALON resin, HRV 3C protease digestion, SEC on Superdex 200 increase)

Key:
[1] = system: P2X1; conditions: reviewer comment, no reference given; cited from earlier work
[2] = target: the molecule itself; assay: cryo-EM structure; single particle cryo-EM of purified hP2X1 in C12M (DDM)/CHS, 20 mM HEPES pH 7.0, 100 mM NaCl, 5 mg/mL; three states: apo closed, ATP-bound desensitized (endogenous ATP), NF449-bound inhibited (400 uM NF449)

Molecule	potency for P2X1 relative to P2X3 [1] [times]	stoichiometry N [2]
Nc1ncnc2c1ncn2[C@@H]1O[C@H](COP(=O)(O)CP(=O)(O)OP(=O)(O)O)[C@@H](O)[C@H]1O [α, β-MeATP]	10	
B1		3
